Reference: patent publication EP4800016A1, “METTL3 INHIBITOR” (Hangzhou Bangshun Pharmaceutical Co., Ltd., priority 2023, dated 2025)

Molecular target: T1, METTL3/14 (Homo sapiens, UniProt Q86U44)
T1 construct: purchased active motif 31570
Test: METTL3/14 methyltransferase activity assay (HTRF)
Type: biochemical
Settings: 10 concentrations, 3-fold dilution from 10 µM
Method: The final initial concentration of the compound was 10 µM, with 3-fold serial dilution to give a total of 10 concentrations. 100 nL of the compound was transferred to a 384-well plate and centrifuged at 1000 RPM. 2.5 µL of METTL3/14 (active motif, Cat No. 31570) was added to the test wells and incubated at 25°C for 10 min. 2.5 µL of METTL3-Biotin & SAM (GenScript) was added to the test wells andincubated at 25°C for 60 min. 2.5 µL of YTHDF1 (active motif, Cat No. 31608) was added to the test wells and centrifuged at 1000 RPM. 2.5 µL of Streptavidin-Tb (Perkin Elmer Cat No. 61SATLB) & Flag-mede (Perkin Elmer Cat No. 61FG2DLA) was added to the test wells and centrifuged at 1000 RPM. Incubated at 25°C for 60 min. HTRF was measured using a Plate reader. The results of each compound are shown in Table 1, where A+indicates <10nM, A indicates 10-100nM, B indicates 100-1000nM, and C indicates >1000nM.

T1 sequence (Q86U44 whole entry): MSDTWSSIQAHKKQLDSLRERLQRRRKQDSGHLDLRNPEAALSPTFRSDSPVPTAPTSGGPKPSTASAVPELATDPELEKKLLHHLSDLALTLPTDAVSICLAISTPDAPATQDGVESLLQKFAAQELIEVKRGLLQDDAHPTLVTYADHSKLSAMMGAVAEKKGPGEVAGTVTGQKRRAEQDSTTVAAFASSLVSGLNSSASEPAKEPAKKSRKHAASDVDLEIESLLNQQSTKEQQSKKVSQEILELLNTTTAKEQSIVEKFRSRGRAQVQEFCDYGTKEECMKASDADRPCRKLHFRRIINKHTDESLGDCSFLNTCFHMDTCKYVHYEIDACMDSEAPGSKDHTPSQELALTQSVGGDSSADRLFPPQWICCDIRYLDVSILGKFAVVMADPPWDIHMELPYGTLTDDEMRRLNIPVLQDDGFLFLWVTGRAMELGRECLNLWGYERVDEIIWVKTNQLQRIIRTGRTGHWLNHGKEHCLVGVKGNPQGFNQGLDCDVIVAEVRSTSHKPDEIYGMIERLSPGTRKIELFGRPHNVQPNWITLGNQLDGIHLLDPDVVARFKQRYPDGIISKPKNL
T1 sequence (Q9HCE5 whole entry partner): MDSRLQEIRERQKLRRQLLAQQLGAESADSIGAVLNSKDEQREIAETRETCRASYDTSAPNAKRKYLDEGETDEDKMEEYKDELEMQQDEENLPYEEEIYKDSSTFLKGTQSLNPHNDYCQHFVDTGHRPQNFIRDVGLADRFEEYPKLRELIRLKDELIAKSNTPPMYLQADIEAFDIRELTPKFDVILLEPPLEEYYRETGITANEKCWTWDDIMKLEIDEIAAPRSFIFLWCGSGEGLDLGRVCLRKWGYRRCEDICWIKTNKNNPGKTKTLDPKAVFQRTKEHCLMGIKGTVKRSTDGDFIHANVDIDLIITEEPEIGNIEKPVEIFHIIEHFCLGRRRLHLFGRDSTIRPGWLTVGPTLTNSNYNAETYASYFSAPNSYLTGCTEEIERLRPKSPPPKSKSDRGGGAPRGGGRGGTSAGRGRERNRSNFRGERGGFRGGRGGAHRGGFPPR

Compound | IC50
CN1CCOc2cnn3cc(C(=O)NCc4ccc5cc(CNCC6CCC6)[nH]c5c4)nc1c23 [Example 59, N-((2-(((Cyclobutylmethyl)amino)methyl)-1H-indol-6-yl)methyl)-6-methyl-7,8-dihydro-6H-9-oxa-2,2a,5,6-tetraazabenzo[cd]azulene-4-carboxamide] | 100 to 1000 nM
O=C(NCc1ccc2cc(CNCC34CCCC3C4)[nH]c2c1)c1cc(=O)n2cc3c(cc2n1)OCO3 (centres unmarked) [Example 60, N-((2-(((Bicyclo[3.1.0]hexan-1-ylmethyl)amino)methyl)-1H-indol-6-yl)methyl)-8-oxo-8H-[1,3]dioxolo[4',5':4,5]pyrido[1,2-a]pyrimidine-6-carboxamide] | < 10 nM
O=C(NCc1ccc2cc(CNCC3CCC3)[nH]c2c1)c1cn2ncc3c2c(n1)OCCO3 [Example 61, N-((2-(((Cyclobutylmethyl)amino)methyl)-1H-indol-6-yl)methyl)-7,8-dihydro-6,9-dioxa-2,2a,5-triazabenzo[cd]azulene-4-carboxamide] | 100 to 1000 nM
[2H]C([2H])(NCC1CCC1)c1cc2ccc(CNC(=O)c3cc(=O)n4cc5c(cc4n3)OCO5)cc2[nH]1 [Example 62, N-((2-(((cyclobutylmethyl)amino)methyl-d2)-1H-indol-6-yl)methyl)-8-oxo-8H-[1,3]dioxolo[4',5':4,5]pyrido[1,2-a]pyrimidine-6-carboxamide] | < 10 nM
O=C(NCc1ccc2cc(CNCC34CCCC3C4)[nH]c2c1)c1cc(=O)n2cc3c(cc2n1)OCCO3 (centres unmarked) [Example 63, N-((2-(((Bicyclo[3.1.0]hexan-1-ylmethyl)amino)methyl)-1H-indol-6-yl)methyl)-9-oxo-2,3-dihydro-9H-[1,4]dioxino[2',3':4,5]pyrido[1,2-a]pyrimidine-7-carboxamide] | < 10 nM
O=C(NCc1cc2[nH]c(CNCC34CC(F)(C3)C4)cc2cc1F)c1cc(=O)n2cc3c(cc2n1)OCO3 [Example 74, N-((5-fluoro-2-((((3-fluorobicyclo[1.1.1]pentan-1-yl)methyl)amino)methyl)-1H-indol-6-yl)methyl)-8-oxo-8H-[1,3]dioxolo[4',5':4,5]pyrido[1,2-a]pyrimidine-6-carboxamide] | < 10 nM
O=C(NCc1c(F)cc2cc(CNCC3CCC3)[nH]c2c1F)c1cc(=O)n2cc3c(cc2n1)OCO3 [Example 75, N-((2-(((Cyclobutylmethyl)amino)methyl)-5,7-difluoro-1H-indol-6-yl)methyl)-8-oxo-8H-[1,3]dioxolo[4',5':4,5]pyrido[1,2-a]pyrimidine-6-carboxamide] | 10 to 100 nM
O=C(NCc1ccc2cc(CNCc3ccc(F)s3)[nH]c2c1)c1cc(=O)n2cc3c(cc2n1)OCCO3 [Example 76, N-((2-((((5-fluorothiophen-2-yl)methyl)amino)methyl)-1H-indol-6-yl)methyl)-9-oxo-2,3-dihydro-9H-[1,4]dioxino[2',3':4,5]pyrido[1,2-a]pyrimidin-7-carboxamide] | 10 to 100 nM
O=C(NCc1ccc2cc(CNC[C@H]3CCCO3)[nH]c2c1)c1cc(=O)n2cc3c(cc2n1)OCCO3 [Example 78, (R)-9-Oxo-N-((2-((((tetrahydrofuran-2-yl)methyl)amino)methyl)-1H-indol-6-yl)methyl)-2,3-dihydro-9H-[1,4]dioxino[2',3':4,5]pyrido[1,2-a]pyrimidine-7-carboxamide] | 10 to 100 nM
O=C(NCc1ccc2cc(CNC[C@@H]3CCO3)[nH]c2c1)c1cc(=O)n2cc3c(cc2n1)OCCO3 [Example 79, (S)-N-((2-(((oxetan-2-ylmethyl)amino)methyl)-1H-indol-6-yl)methyl)-9-oxo-2,3-dihydro-9H-[1,4]dioxolo[2',3':4,5]pyrido[1,2-a]pyrimidine-7-carboxamide] | 10 to 100 nM
COC1(CNCc2cc3ccc(CNC(=O)c4cc(=O)n5cc6c(cc5n4)OCCO6)cc3[nH]2)CCC1 [Example 80, N-((2-((((1-Methoxycyclobutyl)methyl)amino)methyl)-1H-indol-6-yl)methyl)-9-oxo-2,3-dihydro-9H-[1,4]dioxino[2',3':4,5]pyrido[1,2-a]pyrimidine-7-carboxamide] | 10 to 100 nM
